The experiment concerns the target T1, ferroportin (Fpn) (Mus musculus, UniProt Q9JHI9).
T1 construct: endogenous in cells; host or cells: J774 mouse macrophage cell line, induced with Fe(III)NTA
T1 sequence (Q9JHI9 1-570): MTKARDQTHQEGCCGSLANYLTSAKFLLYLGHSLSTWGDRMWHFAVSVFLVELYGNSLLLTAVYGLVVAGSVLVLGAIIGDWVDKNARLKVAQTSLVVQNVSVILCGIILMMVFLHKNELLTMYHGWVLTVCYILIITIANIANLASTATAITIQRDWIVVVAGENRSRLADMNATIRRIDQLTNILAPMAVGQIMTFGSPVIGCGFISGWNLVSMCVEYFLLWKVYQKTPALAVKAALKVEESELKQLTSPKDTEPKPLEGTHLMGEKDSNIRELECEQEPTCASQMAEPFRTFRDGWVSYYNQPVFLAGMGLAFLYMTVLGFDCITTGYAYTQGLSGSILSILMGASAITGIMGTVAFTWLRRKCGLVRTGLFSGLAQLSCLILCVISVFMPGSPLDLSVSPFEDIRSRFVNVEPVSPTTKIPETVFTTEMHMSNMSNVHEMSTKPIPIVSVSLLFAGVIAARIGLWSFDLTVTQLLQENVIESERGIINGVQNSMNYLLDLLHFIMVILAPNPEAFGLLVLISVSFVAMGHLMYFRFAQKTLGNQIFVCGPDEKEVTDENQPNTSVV
The experiment in a line: Hepcidin Internalization Assay (J774). Type of experiment: cell-based. Conditions: J774 cells, TMR-hepcidin 25 nM, 2 hours; read-out: IC 50, average (AVE) of multiple measurements, hepcidin internalization assay. The text has this:
This cellular assay allows quantification of the binding of hepcidin to ferroportin (Fpn) through microscopic detection of internalization of a fluorescently labeled hepcidin into J774 cells. […] Binding of hepcidin to Fpn triggers internalization and degradation of both hepcidin and Fpn. […] Therefore, microscopic detection of cell-associated TMR fluorescence is a measure of hepcidin binding to Fpn and internalization of hepcidin and Fpn. If TMR-hepcidin is prevented from binding to Fpn, cellular TMR fluorescence remains low (Dürrenberger et al, 2013). The effect of small molecular weight Fpn inhibitor compounds in this assay was evaluated in vitro as described below. […] Cat. 655090) and grown at 37° C. with 5% CO2. After overnight incubation, cells were washed 3 times with pre-warmed DMEM w/o phenol red, 30 μl/well of DMEM w/o phenol red was added after the final wash and 10 μl/well of dilution series of test compounds were added in triplicates. […] Cells were incubated in a total volume of 50 μl at 37° C. with 5% CO2 for 2 hours, then Hoechst 33342 dye was added to a final concentration of 0.5 μg/ml to stain nuclei and further incubated for 10 min. at 37° C. with 5% CO2. […] After removal of the paraformaldehyde solution, cells were washed 3 times with PBS leaving 100 μl per well and the plates were sealed with foil plate seal. […] The acquired image data was analysed with the […] analysis software. […] IC50 values were calculated with the Sum(Mean) raw data using “log(inhibitor) vs. response” curve fitting of Prism 5 software (GraphPad Software Inc., version 5.02). For each data set the fit of the “log(inhibitor) vs. response (three parameters)” model was compared to the fit of the “log(inhibitor) vs. response-Variable slope (four parameters)” model and the IC50 data of the preferred model was used.
As for `O=C(NCc1ccccn1)c1coc(CCNCCc2nc3cc(-c4ccc(F)cc4)ccc3[nH]2)n1` [compound 66], the IC50 is 68 nM.
Under `O=C(NCc1ncccc1F)c1coc(CCNCc2nc3cnc4ccccc4c3[nH]2)n1` [compound 2, 2-(2-(((3H-imidazo[4,5-c]quinolin-2-yl)methyl)amino)ethyl)-N-((3-fluoropyridin-2-yl)methyl)oxazole-4-carboxamide] stands 350 nM; under `O=C(NCc1ncccc1F)c1coc(CCNCCc2nc3cccc(C#Cc4cccnc4)c3[nH]2)n1` [compound 80], 83 nM.
For `O=C(NCc1ncccc1F)c1coc(CCNCCc2nc3cccc(C#Cc4ccccc4)c3[nH]2)n1` [compound 37] the value was 34 nM; for `O=C(NCc1ncccc1F)c1coc(CCNCCc2nc3c(-c4ccncc4)cccc3[nH]2)n1` [compound 20], 189 nM; for `O=C(NCc1nc2ccccc2c2ccccc12)c1coc(CCNCCc2nc3c(ccc4ccccc43)[nH]2)n1` [compound 8], 6700 nM.
For `COc1cccnc1CNC(=O)c1coc(CCNCCc2nc3c4c(ccc3[nH]2)CCCC4)n1` [compound 50] the value was 19 nM; for `O=C(NCc1ncccc1F)c1coc(CCNCCc2nc3ccc(CN4CCOCC4)cc3[nH]2)n1` [compound 35], 57 nM.
For `O=C(NCc1ncccc1C(F)(F)F)c1coc(CCNCCc2nc3cc4c(cc3[nH]2)OCCO4)n1` [compound 56], the IC50 came to 49 nM.
Consider `O=C(NCc1ncccc1F)c1coc(CCNCCc2nc3cc4ccccc4cc3[nH]2)n1` [compound 43], for which the IC50 came out at 9 nM.
Under `O=C(NCc1ncccc1F)c1coc(CCNCCc2nc3cc4c(cc3[nH]2)OCCO4)n1` [compound 34] stands 7 nM; under `O=C(NCc1ncccc1F)c1coc(CCNCCc2nc3cc(-c4ccc(Cl)cc4)ccc3[nH]2)n1` [compound 57], 27 nM.
On to `COc1cccc(-c2ccc3[nH]c(CCNCCc4nc(C(=O)NCc5ccccn5)co4)nc3c2)c1` [compound 70], for which the IC50 was 26 nM.
Under `COc1ccc(-c2ccc3[nH]c(CCNCCc4nc(C(=O)NCc5ncccc5F)co4)nc3c2)cc1` [compound 64] stands 10 nM.
For `O=C(NCc1ncccc1F)c1coc(CCNCCc2nc3cc(-c4cccc5c4CCCC5)ccc3[nH]2)n1` [compound 82] the value was 15 nM; for `COc1ccccc1-c1ccc2[nH]c(CCNCCc3nc(C(=O)NCc4ncccc4OC)co3)nc2c1` [compound 51], 17 nM.
Under `O=C(NCc1ncccc1F)c1coc(CCNCCc2nc3cc(-c4ccccc4Cl)ccc3[nH]2)n1` [compound 44] stands 6 nM; under `COc1cccc(-c2ccc3[nH]c(CCNCCc4nc(C(=O)NCc5ncccc5F)co4)nc3c2)c1` [compound 63], 8 nM.
On to `O=C(NCc1ncccc1F)c1coc(CCNCCc2nc3cc(C#Cc4ccccc4)ccc3[nH]2)n1` [compound 72], for which the IC50 turned out to be 2 nM.
On to `COc1ccccc1-c1ccc2[nH]c(CCNCCc3nc(C(=O)NCc4ncccc4F)co3)nc2c1` [compound 45], for which the IC50 turned out to be 6 nM.
Under `COc1cccc(-c2ccc3[nH]c(CCNCCc4nc(C(=O)NCc5ncccc5F)co4)nc3c2)c1OC` [compound 83] stands 6 nM; under `O=C(NCc1ncccc1F)c1coc(CCNCCc2nc3cc(-n4cccc4)ccc3[nH]2)n1` [compound 32], 27 nM.
For `O=C(NCc1ccccn1)c1coc(CCNCCc2nc3cc(-c4cccc(F)c4)ccc3[nH]2)n1` [compound 69] the value was 61 nM; for `COc1cccnc1CNC(=O)c1coc(CCNCCc2nc3cc(-c4ccc(C)cc4)ccc3[nH]2)n1` [compound 74], 7 nM; for `CN(C)C(=O)c1cccc(C#Cc2ccc3[nH]c(CCNCCc4nc(C(=O)NCc5ncccc5F)co4)nc3c2)c1` [compound 76], 3 nM.
For `O=C(NCc1ncccc1F)c1coc(CCNCCc2nc3cc(-c4ccc5c(c4)CCCC5)ccc3[nH]2)n1` [compound 89] the value was 10 nM; for `O=C(NCc1nc2ccccc2c2ccccc12)c1coc(CCNCCc2nc3ccccc3[nH]2)n1` [compound 7], 1590 nM; for `O=C(NCc1ncccc1F)c1coc(CCNCCc2nc3cc(CCc4ccccc4)ccc3[nH]2)n1` [compound 75], 2 nM.
Turning to `Cc1cccnc1CNC(=O)c1coc(CCNCCc2nc3c(ccc4ccccc43)[nH]2)n1` [compound 13], the IC50 was 55 nM.
For `O=C(NCc1ncccc1C(F)(F)F)c1coc(CCNCCc2nc3cc(-n4cccc4)ccc3[nH]2)n1` [compound 58] the value was 171 nM; for `O=C(NCc1ncccc1F)c1coc(CCNCCc2nc3c4c(ccc3[nH]2)CCCC4)n1` [compound 39], 12 nM; for `O=C(NCc1ncccc1Cl)c1coc(CCNCCc2nc3cc(-n4cccc4)ccc3[nH]2)n1` [compound 59], 28 nM.
For `O=C(NCc1ncccc1F)c1coc(CCNCCc2nc3cc(C#Cc4cccnc4)ccc3[nH]2)n1` [compound 73] the value was 2 nM; for `COc1cccc(C#Cc2cccc3nc(CCNCCc4nc(C(=O)NCc5ncccc5F)co4)[nH]c23)c1` [compound 78], 41 nM.
As for `O=C(NCc1ncccc1F)c1coc(CCNCCc2nc3c(ccc4ccccc43)[nH]2)n1` [compound 5, 2-(2-((2-(3H-naphtho[1,2-d]imidazol-2-yl)ethyl)amino)ethyl)-N-((3-fluoropyridin-2-yl)methyl)oxazole-4-carboxamide], the IC50 is 13 nM.
As to `O=C(NCc1ncccc1F)c1coc(CCNCCc2nc3cc(-c4cccc5c4OCCO5)ccc3[nH]2)n1` [compound 81], the IC50 is 7 nM.
Under `O=C(NCc1ncccc1F)c1coc(CCNCCc2nc3cccc(C#Cc4cccc(-c5ncco5)c4)c3[nH]2)n1` [compound 79] stands 84 nM.
Under `O=C(NCc1ncccc1Cl)c1coc(CCNCCc2nc3cc4c(cc3[nH]2)OCCO4)n1` [compound 55] stands 2 nM; under `Cc1ccccc1-c1ccc2[nH]c(CCNCCc3nc(C(=O)NCc4ncccc4F)co3)nc2c1` [compound 62], 8 nM; under `O=C(NCc1ncccc1F)c1coc(CCNCCc2nc3cc(-c4cccc(-c5ncco5)c4)ccc3[nH]2)n1` [compound 87], 14 nM.
Under `COc1cccnc1CNC(=O)c1coc(CCNCCc2nc3cc(-n4cccc4)ccc3[nH]2)n1` [compound 54] stands 37 nM; under `COc1cccnc1CNC(=O)c1coc(CCNCCc2nc3cc(-c4ccccc4)ccc3[nH]2)n1` [compound 53], 16 nM; under `O=C(NCc1ncccc1F)c1coc(CCNCc2nc3cc4ccccc4cc3[nH]2)n1` [compound 1, 2-(2-(((1H-naphtho[2,3-d]imidazol-2-yl)methyl)amino)ethyl)-N-((3-fluoropyridin-2-yl)methyl)oxazole-4-carboxamide], 40 nM.
`COc1cccnc1CNC(=O)c1coc(CCNCCc2nc3c(ccc4ccccc43)[nH]2)n1` [compound 15]: the IC50 worked out at 33 nM.
For the compound `O=C(NCc1ccc2c(ccc3ccccc32)n1)c1coc(CCNCCc2nc3ccccc3[nH]2)n1` [compound 6, 2-(2-((2-(1H-benzo[d]imidazol-2-yl)ethyl)amino)ethyl)-N-(benzo[f]quinolin-3-ylmethyl)oxazole-4-carboxamide], the IC50 turned out to be 1600 nM.
Turning to `O=C(NCc1ncccc1Cl)c1coc(CCNCCc2nc3c(ccc4ccccc43)[nH]2)n1` [compound 14], the IC50 came out at 33 nM.
For `O=C(NCc1ncccc1F)c1coc(CCNCCc2nc3cc4c(cc3[nH]2)OCO4)n1` [compound 36] the value was 11 nM; for `Cc1cccnc1CNC(=O)c1coc(CCNCCc2nc3cc(-c4ccccc4)ccc3[nH]2)n1` [compound 52], 26 nM; for `O=C(NCc1ncccc1F)c1coc(CCNCCc2nc3cc(-c4ccccc4-c4ncco4)ccc3[nH]2)n1` [compound 86], 9 nM.
Under `O=C(NCc1ncccc1F)c1coc(CCNCCc2nc3cc(-c4cccc(Cl)c4)ccc3[nH]2)n1` [compound 85] stands 11 nM.

The values above are taken from patent US20240239780A1, “MODIFIED FERROPORTIN INHIBITORS” (Vifor (International) AG, priority 2021, published 2024).
